Laboratory results: patent US20250134863A1, “MEDICAL AGENT FOR TREATING OR SUPPRESSING PROGRESSION OF AMYOTROPHIC LATERAL SCLEROSIS” (MITSUBISHI TANABE PHARMA CORPORATION, priority 2022, published 2025)
Where “and” joins values, the source holds several entries; their conditions need not be identical. Equal entries are not always repeated.

Columns and labels:
ALS patients [1] = assay: Post-hoc statistical analysis 2: uric acid levels from baseline to cycle 12 (16, 17 and 19 trials); type: in vivo, human; conditions: placebo-controlled double-blind period (cycles 1-6); edaravone group vs placebo group
ALS patients [2] = assay: Post-hoc statistical analysis 1: percent change in ALSFRS-R slope on transition from placebo to edaravone (16, 17 and 19 trials); type: in vivo, human; conditions: for Percentage change in ALSFRS-R slope, Median: Wilcoxon p=0.0433
Text: After a 12-week observation period, patients whose ALSFRS-R total score decreased by 1 to 4 points during that period were considered eligible for the trial. In the 16 trial, eligible patients were randomly divided into an edaravone treatment group and a placebo administration group, and patients in each group received administration for 24 weeks (cycles 1 to 6). After completing the 24-week double-blind portion of the 16 trial, patients who received edaravone (E) were randomly assigned to the 17 trial, and during a 24-week double-blind extension period (cycles 7 to 12), edaravone treatment (EE group) or placebo administration (EP group) was performed. On the other hand, all patients from the placebo (P) administration group received edaravone treatment (PE group). All patients received open-label edaravone treatment for the next 12 weeks (cycles 13 to 15).
Edaravone was administered at a dose of 60 mg by intravenous infusion over 60 minutes, once daily. The infusion was given for 14 days in the first treatment cycle, and for 10 days out of the 14-day treatment period in all subsequent cycles. A 14-day drug holiday period was provided after each treatment cycle.
Similar to the 16 trial, after a 12-week observation period, patients in the 19 trial were randomly divided into an edaravone treatment group and a placebo administration group, and patients in each group received administration for 24 weeks (cycles 1 to 6). In the 19 trial, after the double-blind treatment period, all patients received open-label edaravone treatment for an additional 24 weeks (cycles 7 to 12). Therefore, the 19 trial included an EE group and a PE group.
In the present analysis, efficacy was analyzed for placebo patients who had completed the 24-week double-blind period (cycles 1 to 6) and had at least one data point in cycle 7. To estimate the percent change in ALSFRS-R slope for transition from placebo administration (baseline to 24 weeks) to edaravone administration (24 weeks 24 to 48 weeks), a random coefficient model was applied to all available ALSFRS-R score data during this period.
A 25% improvement group meets both of the following criteria:
(1) ALSFRS-R slope % change ≥+25% (this change is defined as a clinically significant improvement (Reference 5: Amyotroph Lateral Scler 2010; 11 (1-2): 178-180)) and (2) ALSFRS-R total score at the start of cycle 7 (24 weeks)>24 points (half of the 48-point ALSFRS-R total score) (this helps avoid floor effects related to the ALSFRS-R total score that could lead to false positives in the analysis).
These criteria were used to define a 25% improvement group and a non-25% improvement group. Using a mixed model for repeated measures, the changes in uric acid levels from the start of cycle 7 (24 weeks) to cycle 12 (48 weeks) were summarized for the 25% improvement group and the non-25% improvement group. The correlation between the change in uric acid levels from 24 weeks to 48 weeks and the ALSFRS-R slope percent change was descriptively summarized using the Wilcoxon test.

ALS patients [3] = conditions: 18 trial; ALS severity of grade 3; very small number of cases; cited from earlier work
ALS patients [4] = assay: Propensity score matching cohort evaluation, EE group vs PRO-ACT placebo, ALSFRS-R total score; type: in vivo, human
Experimental: In a sensitivity analysis, propensity score matching cohort evaluation was conducted to compare the baseline changes in ALSFRS-R total score at 48 weeks between the EE group from the 16 trial, the 17 trial, and the 19 trial, and a matching cohort from the Pooled Resource Open-Access ALS Clinical Trials Database (hereinafter PRO-ACT) database. The EE group and PRO-ACT placebo group were matched 1:1 using a caliper width of 0.2 of the log it of the propensity score. The propensity score was developed using baseline confounding factors and ALS progression variables (gender, body weight, age, duration of ALS disease, ALSFRS-R total score baseline, uric acid baseline) of the EE group. A balance after the matching was evaluated using a standardized mean difference of less than 0.1 (Reference 6: J Clin Epidemiol 2001; 54 (4): 387-398). The propensity score was added as an explanatory variable for the MMRM analysis. Further, a subgroup analysis of uric acid levels was performed using MMRM analysis within the matching cohort, and the change from baseline in the ALSFRS-R total score at 48 weeks was compared between the EE group and the PRO-ACT placebo group.

[5] = entire placebo-edaravone treatment population
[6] = uric acid level baseline <4.8 mg/dL
[7] = uric acid level baseline ≥4.8 mg/dL

CC1=NN(c2ccccc2)C(=O)C1 [edaravone, 3-methyl-1-phenyl-2-pyrazolin-5-one]
decrease in uric acid levels from baseline at cycle 6 (ALS patients [1]): smaller decrease in uric acid levels compared to the placebo group
proportion of patients showing improvement in ALSFRS-R slope (ALS patients [2]; ALS severity grade 3): 64.3%
proportion of patients with at least a 25% improvement in ALSFRS-R slope, cutoff of 24 points (ALS patients [2]; ALS severity grade 3): 35.7%
proportion of patients showing improvement in ALSFRS-R slope (ALS patients [2]; ALS severity grade 4): 66.7%
proportion of patients with at least a 25% improvement in ALSFRS-R slope, cutoff of 24 points (ALS patients [2]; ALS severity grade 4): 33.3%
patients with 25% improvement in ALSFRS-R slope of edaravone compared to placebo (ALS patients [2]; ALS severity of grade 3 or 4 at the start of cycle 7, about one-third): 21/60
Percentage change in ALSFRS-R slope, Median (ALS patients [2]; change in uric acid level >0 (n=41)): 14%
Percentage change in ALSFRS-R slope, Mean (SD) (ALS patients [2]; change in uric acid level >0 from start of cycle 7 to last administration of cycle 12 (n=41)): −64 (199) %
Percentage change in ALSFRS-R slope, Median (ALS patients [2]; change in uric acid level ≤0 (n=105)): −38%
Percentage change in ALSFRS-R slope, Mean (SD) (ALS patients [2]; change in uric acid level ≤0 from start of cycle 7 to last administration of cycle 12 (n=105)): −201 (664) %
proportion of patients showing improvement in ALSFRS-R slope upon transition from placebo to edaravone treatment (ALS patients [2]; [5]): 43.2% and 43%
proportion of patients with at least a 25% improvement in ALSFRS-R slope, cutoff of 24 points (ALS patients [2]; [5]): 24%
change in ALSFRS-R total score compared to placebo (ALS patients [3]): no statistically significant difference was observed compared to placebo
ALSFRS-R total score at Cycle 12, Mean (SD) (ALS patients [4]; Overall): 32.8 (7.79) points
ALSFRS-R total score change from baseline to cycle 12, LS Mean (SE) (ALS patients [4]; Overall): −8.7±0.53 points
ALSFRS-R total score change from baseline to cycle 12, Mean (SD) (ALS patients [4]; Overall): −8.2 (6.16) points
ALSFRS-R total score change from baseline to cycle 12, LSMD vs placebo PRO-ACT (SE) (ALS patients [4]; Overall, 95% CI [0.71, 3.72], p=0.0041): 2.21±0.77 points
ALSFRS-R total score change from baseline to cycle 12, LS Mean (SE) (ALS patients [4]; Overall, listed as Edaravone): −8.7 (0.53) points
ALSFRS-R total score at Cycle 12, Mean (SD) (ALS patients [4]; [6]): 31.3 (8.79) points
ALSFRS-R total score change from baseline to cycle 12, LS Mean (SE) (ALS patients [4]; [6]): −10.3 (0.74) points
ALSFRS-R total score change from baseline to cycle 12, Mean (SD) (ALS patients [4]; [6]): −9.6 (7.52) points
ALSFRS-R total score at Cycle 12, Mean (SD) (ALS patients [4]; [7]): 34.0 (6.75) points
ALSFRS-R total score change from baseline to cycle 12, LS Mean (SE) (ALS patients [4]; [7]): −7.3 (0.73) points
ALSFRS-R total score change from baseline to cycle 12, Mean (SD) (ALS patients [4]; [7]): −7.1 (4.58) points
